Drawing on ChEMBL document CHEMBL1145498, “A systematic interaction map of validated kinase inhibitors with Ser/Thr kinases” (Proc Natl Acad Sci U S A, 2007), this text covers ΔTm for 4 compounds.

Assay [1] concerns the target Calcium/calmodulin-dependent protein kinase type 1D (Homo sapiens) (UniProt Q8IU85).
Assay [2] deals with Cyclin-dependent kinase 6 (Homo sapiens) (UniProt Q00534).
For assay [3], the target named is Cyclin-dependent kinase-like 1 (Homo sapiens) (UniProt Q00532).
Assay [4] addresses T1, Dual specificity mitogen-activated protein kinase kinase 6 (Homo sapiens) (UniProt P52564).
T1 sequence (whole entry): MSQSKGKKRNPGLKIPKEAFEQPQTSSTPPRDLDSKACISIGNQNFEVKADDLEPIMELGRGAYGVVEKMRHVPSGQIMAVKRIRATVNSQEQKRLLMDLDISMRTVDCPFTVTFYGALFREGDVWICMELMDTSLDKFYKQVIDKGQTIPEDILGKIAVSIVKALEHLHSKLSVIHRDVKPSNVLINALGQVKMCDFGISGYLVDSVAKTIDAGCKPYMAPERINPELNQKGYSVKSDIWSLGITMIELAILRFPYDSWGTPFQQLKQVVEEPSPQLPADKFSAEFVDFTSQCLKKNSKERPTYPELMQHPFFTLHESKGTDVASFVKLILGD

Assay [5] has as its target Mitogen-activated protein kinase 11 (Homo sapiens, UniProt Q15759).
Assay [6] has as its target Mitogen-activated protein kinase 3 (Homo sapiens, UniProt P27361).
Assay [7] deals with Serine/threonine-protein kinase 26 (Homo sapiens) (UniProt Q9P289).
Chain of Serine/threonine-protein kinase 26 (Homo sapiens) (Q9P289 2-416 limits assumed): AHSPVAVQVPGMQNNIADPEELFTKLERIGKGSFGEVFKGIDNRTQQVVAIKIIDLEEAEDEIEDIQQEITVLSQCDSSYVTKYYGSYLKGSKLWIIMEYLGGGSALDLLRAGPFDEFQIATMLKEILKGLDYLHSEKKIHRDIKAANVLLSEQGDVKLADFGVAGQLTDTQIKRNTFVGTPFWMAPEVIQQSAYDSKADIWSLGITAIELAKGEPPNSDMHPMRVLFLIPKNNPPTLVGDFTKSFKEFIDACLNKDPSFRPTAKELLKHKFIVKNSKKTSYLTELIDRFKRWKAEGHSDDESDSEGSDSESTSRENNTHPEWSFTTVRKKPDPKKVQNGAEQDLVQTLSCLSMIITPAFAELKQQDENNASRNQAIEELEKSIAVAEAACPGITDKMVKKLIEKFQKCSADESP
Assay [8] concerns the target T2, Serine/threonine-protein kinase Nek2 (Homo sapiens) (UniProt P51955).
T2 sequence (whole entry): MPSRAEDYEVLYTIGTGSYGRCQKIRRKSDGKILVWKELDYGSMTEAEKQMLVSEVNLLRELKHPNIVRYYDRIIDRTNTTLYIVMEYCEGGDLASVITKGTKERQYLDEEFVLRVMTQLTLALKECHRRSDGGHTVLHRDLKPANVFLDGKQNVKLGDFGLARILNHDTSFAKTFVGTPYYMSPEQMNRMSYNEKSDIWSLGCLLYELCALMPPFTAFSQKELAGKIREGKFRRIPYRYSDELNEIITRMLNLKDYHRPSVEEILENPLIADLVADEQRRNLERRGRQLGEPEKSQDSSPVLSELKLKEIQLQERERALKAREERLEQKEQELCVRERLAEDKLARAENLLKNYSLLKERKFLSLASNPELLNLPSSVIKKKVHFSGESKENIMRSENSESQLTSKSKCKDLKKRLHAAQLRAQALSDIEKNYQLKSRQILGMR

The target of assay [9] is Serine/threonine-protein kinase PAK 4 (Homo sapiens) (UniProt O96013).
Assay [10] addresses Serine/threonine-protein kinase PAK 5 (Homo sapiens) (UniProt Q9P286).
In assay [11] the target is Cyclin-dependent kinase 16 (Homo sapiens) (UniProt Q00536).
Chain of Cyclin-dependent kinase 16 (Homo sapiens) (Q00536 whole entry): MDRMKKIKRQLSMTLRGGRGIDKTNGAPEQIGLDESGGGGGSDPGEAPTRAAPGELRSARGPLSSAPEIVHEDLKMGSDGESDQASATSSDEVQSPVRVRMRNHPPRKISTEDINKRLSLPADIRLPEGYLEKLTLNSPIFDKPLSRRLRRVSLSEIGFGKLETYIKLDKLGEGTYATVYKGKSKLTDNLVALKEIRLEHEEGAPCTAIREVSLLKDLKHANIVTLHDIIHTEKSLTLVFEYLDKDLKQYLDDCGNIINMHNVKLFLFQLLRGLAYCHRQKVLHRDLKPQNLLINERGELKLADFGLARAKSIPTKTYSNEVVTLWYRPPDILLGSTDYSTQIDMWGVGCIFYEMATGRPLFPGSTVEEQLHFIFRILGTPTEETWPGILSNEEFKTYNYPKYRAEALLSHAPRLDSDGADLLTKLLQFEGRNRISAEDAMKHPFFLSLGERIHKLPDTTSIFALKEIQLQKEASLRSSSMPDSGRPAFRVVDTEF
Assay [12] addresses Serine/threonine-protein kinase pim-3 (Homo sapiens) (UniProt Q86V86).
Assay [13] deals with Ribosomal protein S6 kinase alpha-3 (Homo sapiens) (UniProt P51812).
Chain of Ribosomal protein S6 kinase alpha-3 (Homo sapiens) (P51812 whole entry): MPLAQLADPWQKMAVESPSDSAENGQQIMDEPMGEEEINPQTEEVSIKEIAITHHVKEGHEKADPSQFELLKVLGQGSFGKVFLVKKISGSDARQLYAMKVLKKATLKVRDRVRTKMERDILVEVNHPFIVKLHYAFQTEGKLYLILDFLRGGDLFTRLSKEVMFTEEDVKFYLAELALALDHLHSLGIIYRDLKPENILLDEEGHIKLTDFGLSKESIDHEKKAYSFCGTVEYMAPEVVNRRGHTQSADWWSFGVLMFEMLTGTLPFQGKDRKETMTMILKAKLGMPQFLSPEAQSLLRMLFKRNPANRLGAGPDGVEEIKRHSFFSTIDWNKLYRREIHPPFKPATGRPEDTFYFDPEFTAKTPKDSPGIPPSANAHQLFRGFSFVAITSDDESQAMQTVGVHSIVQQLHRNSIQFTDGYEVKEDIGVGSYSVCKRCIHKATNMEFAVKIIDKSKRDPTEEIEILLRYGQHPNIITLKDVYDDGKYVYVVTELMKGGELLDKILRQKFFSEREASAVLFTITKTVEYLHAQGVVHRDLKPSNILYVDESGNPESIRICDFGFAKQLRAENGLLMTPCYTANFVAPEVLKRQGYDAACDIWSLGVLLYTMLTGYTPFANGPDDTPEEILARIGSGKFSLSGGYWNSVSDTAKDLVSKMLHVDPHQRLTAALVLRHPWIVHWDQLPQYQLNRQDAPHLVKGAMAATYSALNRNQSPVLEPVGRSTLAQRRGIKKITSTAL
Assay [14] addresses Serine/threonine-protein kinase 16 (Homo sapiens) (UniProt O75716).
Assay [15] deals with T3, Serine/threonine-protein kinase 17A (Homo sapiens) (UniProt Q9UEE5).
T3 sequence (whole entry): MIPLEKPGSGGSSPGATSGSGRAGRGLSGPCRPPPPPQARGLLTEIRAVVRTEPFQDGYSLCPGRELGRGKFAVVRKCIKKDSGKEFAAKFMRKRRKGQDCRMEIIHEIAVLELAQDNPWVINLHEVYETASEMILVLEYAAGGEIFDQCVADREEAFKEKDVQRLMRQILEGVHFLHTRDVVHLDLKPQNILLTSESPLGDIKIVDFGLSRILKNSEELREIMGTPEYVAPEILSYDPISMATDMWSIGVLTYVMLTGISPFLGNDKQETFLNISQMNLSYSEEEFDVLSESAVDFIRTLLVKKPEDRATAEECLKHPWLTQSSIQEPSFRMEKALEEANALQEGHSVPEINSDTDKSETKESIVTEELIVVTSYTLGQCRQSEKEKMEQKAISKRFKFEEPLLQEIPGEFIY

Assay [16] deals with Serine/threonine-protein kinase 38 (Homo sapiens) (UniProt Q15208).
Chain of Serine/threonine-protein kinase 38 (Homo sapiens) (Q15208 2-465 limits assumed): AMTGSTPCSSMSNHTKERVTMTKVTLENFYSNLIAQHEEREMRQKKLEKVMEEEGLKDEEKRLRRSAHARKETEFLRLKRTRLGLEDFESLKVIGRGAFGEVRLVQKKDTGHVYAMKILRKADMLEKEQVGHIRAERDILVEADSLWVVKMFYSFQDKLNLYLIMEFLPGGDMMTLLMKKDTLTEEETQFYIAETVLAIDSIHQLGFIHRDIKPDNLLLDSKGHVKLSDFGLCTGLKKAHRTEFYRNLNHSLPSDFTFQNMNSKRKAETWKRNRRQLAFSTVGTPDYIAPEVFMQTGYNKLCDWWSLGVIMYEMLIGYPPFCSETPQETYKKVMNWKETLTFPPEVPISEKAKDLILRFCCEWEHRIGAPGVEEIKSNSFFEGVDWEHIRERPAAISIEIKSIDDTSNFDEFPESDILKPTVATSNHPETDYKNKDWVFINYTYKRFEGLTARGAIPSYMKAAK
Assay [17] has as its target T4, Serine/threonine-protein kinase 4 (Homo sapiens) (UniProt Q13043).
T4 sequence (whole entry): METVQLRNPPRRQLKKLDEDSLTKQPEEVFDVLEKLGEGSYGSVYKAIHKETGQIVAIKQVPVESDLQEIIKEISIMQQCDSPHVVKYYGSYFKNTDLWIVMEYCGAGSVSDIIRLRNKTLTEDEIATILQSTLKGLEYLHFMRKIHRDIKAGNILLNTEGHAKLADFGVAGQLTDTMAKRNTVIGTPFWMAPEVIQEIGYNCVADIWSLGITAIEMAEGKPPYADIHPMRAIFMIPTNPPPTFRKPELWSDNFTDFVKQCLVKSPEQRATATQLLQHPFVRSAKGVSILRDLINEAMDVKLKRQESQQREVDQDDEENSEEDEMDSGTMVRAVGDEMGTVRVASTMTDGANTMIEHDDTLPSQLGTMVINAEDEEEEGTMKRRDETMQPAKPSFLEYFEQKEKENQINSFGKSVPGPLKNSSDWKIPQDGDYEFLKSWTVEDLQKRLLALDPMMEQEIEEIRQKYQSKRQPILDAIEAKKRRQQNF

Assay [18] deals with T5, Lymphokine-activated killer T-cell-originated protein kinase (Homo sapiens) (UniProt Q96KB5).
T5 sequence (whole entry): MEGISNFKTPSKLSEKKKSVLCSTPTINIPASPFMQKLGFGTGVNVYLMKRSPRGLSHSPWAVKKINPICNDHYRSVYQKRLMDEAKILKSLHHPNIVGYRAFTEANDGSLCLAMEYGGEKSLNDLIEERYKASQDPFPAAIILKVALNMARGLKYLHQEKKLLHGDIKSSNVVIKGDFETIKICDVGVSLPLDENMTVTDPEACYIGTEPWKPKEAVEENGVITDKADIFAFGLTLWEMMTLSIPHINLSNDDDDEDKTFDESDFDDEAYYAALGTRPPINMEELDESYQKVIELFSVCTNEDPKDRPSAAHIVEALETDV

Chain of Serine/threonine-protein kinase PAK 5 (Homo sapiens) (Q9P286 whole entry, looked up): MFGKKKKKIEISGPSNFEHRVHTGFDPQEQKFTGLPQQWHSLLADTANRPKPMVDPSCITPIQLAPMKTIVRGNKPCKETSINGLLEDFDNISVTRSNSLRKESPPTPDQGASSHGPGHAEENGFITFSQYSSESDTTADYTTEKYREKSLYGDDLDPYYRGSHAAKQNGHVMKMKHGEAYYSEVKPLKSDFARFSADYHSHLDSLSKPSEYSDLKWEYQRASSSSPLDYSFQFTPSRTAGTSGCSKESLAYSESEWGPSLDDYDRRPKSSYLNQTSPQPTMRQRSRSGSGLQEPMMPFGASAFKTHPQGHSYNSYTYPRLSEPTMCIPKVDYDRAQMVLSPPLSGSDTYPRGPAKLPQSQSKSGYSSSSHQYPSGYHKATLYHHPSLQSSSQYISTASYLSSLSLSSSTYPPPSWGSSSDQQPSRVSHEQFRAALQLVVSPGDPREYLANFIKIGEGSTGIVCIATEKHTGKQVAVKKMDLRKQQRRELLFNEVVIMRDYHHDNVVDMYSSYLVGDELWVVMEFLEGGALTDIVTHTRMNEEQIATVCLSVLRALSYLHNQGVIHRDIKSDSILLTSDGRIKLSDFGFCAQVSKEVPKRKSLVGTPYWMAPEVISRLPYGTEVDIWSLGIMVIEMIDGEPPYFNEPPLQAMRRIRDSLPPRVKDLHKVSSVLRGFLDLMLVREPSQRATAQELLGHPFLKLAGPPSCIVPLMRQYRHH
Chain of Cyclin-dependent kinase 6 (Homo sapiens) (Q00534 whole entry): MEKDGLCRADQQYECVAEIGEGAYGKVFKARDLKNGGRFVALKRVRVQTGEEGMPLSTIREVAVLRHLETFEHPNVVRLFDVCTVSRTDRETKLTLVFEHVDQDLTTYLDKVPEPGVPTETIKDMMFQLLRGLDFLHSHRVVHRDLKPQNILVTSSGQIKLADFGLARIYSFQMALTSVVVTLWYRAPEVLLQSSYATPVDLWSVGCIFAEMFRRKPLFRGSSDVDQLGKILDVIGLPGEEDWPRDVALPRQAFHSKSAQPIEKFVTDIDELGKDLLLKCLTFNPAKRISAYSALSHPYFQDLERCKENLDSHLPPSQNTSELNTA
Chain of Serine/threonine-protein kinase 16 (Homo sapiens) (O75716 whole entry): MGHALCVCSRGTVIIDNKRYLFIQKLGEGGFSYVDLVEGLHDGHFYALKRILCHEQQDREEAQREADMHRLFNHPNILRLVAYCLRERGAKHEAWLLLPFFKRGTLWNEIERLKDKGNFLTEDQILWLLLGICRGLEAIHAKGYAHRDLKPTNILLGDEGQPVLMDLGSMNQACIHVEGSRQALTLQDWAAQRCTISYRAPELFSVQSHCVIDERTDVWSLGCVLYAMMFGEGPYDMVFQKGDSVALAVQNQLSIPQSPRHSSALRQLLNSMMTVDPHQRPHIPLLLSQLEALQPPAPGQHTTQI
Chain of Mitogen-activated protein kinase 3 (P27361 whole entry): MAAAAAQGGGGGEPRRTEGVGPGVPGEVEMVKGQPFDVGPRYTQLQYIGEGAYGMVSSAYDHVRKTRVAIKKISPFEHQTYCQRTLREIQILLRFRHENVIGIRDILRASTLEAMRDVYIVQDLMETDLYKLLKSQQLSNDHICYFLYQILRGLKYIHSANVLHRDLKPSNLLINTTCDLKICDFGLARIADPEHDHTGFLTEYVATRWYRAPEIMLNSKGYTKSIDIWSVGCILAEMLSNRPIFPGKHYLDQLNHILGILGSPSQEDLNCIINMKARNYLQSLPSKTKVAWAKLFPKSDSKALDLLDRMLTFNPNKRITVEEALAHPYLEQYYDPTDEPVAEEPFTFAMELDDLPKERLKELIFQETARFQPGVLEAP
Chain of Mitogen-activated protein kinase 11 (Q15759 whole entry): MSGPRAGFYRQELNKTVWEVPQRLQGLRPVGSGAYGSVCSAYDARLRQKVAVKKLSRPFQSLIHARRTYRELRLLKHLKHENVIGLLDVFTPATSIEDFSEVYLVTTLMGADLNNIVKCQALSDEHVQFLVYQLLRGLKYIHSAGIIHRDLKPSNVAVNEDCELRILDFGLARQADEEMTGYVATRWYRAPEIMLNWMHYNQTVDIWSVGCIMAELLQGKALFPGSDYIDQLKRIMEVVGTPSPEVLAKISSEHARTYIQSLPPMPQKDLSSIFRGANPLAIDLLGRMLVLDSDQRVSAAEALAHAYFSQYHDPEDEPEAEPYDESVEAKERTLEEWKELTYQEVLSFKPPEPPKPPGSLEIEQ
Chain of Calcium/calmodulin-dependent protein kinase type 1D (Homo sapiens) (Q8IU85 whole entry, looked up): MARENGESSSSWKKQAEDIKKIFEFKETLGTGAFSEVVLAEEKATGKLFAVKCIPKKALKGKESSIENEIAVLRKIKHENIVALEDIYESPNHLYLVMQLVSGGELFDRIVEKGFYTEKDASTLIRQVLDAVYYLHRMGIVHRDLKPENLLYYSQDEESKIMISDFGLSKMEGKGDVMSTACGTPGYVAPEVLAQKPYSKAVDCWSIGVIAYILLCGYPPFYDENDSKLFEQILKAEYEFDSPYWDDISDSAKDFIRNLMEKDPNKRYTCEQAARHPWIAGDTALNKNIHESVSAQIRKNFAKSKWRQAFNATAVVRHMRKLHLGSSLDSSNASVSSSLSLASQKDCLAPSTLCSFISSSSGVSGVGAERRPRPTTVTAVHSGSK

As for `CC(C)n1cnc2c(NCc3ccccc3O)nc(NCCCO)nc21`, the ΔTm (as a rule, the shift of the melting midpoint relative to a reference) in [1] worked out at 0 °C; in assay [2], 0 °C; in assay [3], 0.1 °C; in assay [4] it was 0.1 °C; in assay [5] it was 0.1 °C; in assay [6], 0.4 °C. Also, the ΔTm in assay [7] is 0.4 °C; in [8] it was 0.3 °C; in assay [9], 0.5 °C; in assay [10] it was 0.2 °C; in assay [11], -0.2 °C; in assay [12], 0.4 °C. Further, the ΔTm in [13] came out at 0.7 °C; in [14], 1.2 °C; in [15], 0 °C; in [16], 0.3 °C; in [17], 0.3 °C; in [18], 0.7 °C.

In the case of `O=C1c2ccccc2-c2n[nH]c3cccc1c23`, the ΔTm in [1] came out at 2.1 °C; in assay [2] it was 0.3 °C; in assay [3], 0.7 °C; in assay [4] it was 4.7 °C; in assay [5] it was 0.8 °C; in assay [6] it was 0.9 °C. Also, the ΔTm in [7] came to 2.1 °C; in [8] it was 2.3 °C; in [9], 1.5 °C; in assay [10], 1.1 °C; in assay [11], 0.1 °C; in assay [12], 4.8 °C. Besides, the ΔTm in assay [13] was found to be 7 °C; in [14] it was 6.9 °C; in [15], 10 °C; in assay [16], 1 °C; in [17] it was 4.3 °C; in assay [18], 0.8 °C.

Regarding `O=C1C=C2C(=Nc3c2c2c(c4c3=NC3=C4CCC=C3)C=NC=2)CC1`, the ΔTm worked out at 3.6 °C in assay [1]; 2.7 °C in [2]; 6.6 °C in assay [3]; 5.3 °C in [4]; 1.2 °C in assay [5]; 0.6 °C in assay [6]. Besides, the ΔTm in assay [7] came to 4.8 °C; in [8] it was 2.8 °C; in assay [9] it was 3.8 °C; in [10], 2.7 °C; in assay [11] it was 0.8 °C; in assay [12], 1.7 °C. The ΔTm is 5.1 °C in assay [13]; 11.5 °C in assay [14]; 2.6 °C in assay [15]; 3.6 °C in assay [16]; 2.1 °C in assay [17]; 0.9 °C in [18].

With `O=C(O)/C=C/c1cc(CO)ccc1CO`, the thermal shift (ΔTm) was 0.1 °C in assay [1]; 0.3 °C in [2]; -0.1 °C in [3]; -0.2 °C in [4]; 0.3 °C in assay [5]; 0.2 °C in assay [6]. The ΔTm in [7] was 0.4 °C; in assay [8], 1 °C; in assay [9], 0.1 °C; in assay [10], -4.4 °C; in assay [11], -0.2 °C; in assay [12], 2.2 °C. Moreover, the ΔTm in assay [13] came out at 0.3 °C; in [14], 0.3 °C; in [15], 0.6 °C; in [16], 0.1 °C; in assay [17] it was 0 °C; in [18], 0.8 °C.
